Data taken from patent US7425551B2, “Malonamide derivatives” (Hoffmann-La Roche Inc., priority 2006, dated 2008).

target: T1, γ-secretase (Homo sapiens, UniProt P49768); assay: in vitro assay of γ-secretase activity (HEK293 membrane fraction, recombinant APP substrate, Abeta ELISA); format: biochemical; conditions: γ-secretase inhibition; HEK293 membrane fraction solubilized in 0.25% CHAPSO, recombinant human APP C-terminal 100 amino acids substrate, Abeta detected by ELISA
T1 construct: uses a HEK293 membrane fraction as a source of γ-secretase; endogenous in cells; host or cells: HEK293 (microsomal membrane fraction, solubilised in 0.25% CHAPSO)
Excerpt: Description of 1γ-Secretase Assay The activity of test compounds can be evaluated in assays which measure the proteolytic cleavage of suitable substrates by γ-secretase activity. These can be cellular assays where e.g., a substrate of the γ-secretase is fused in its cytoplasmic domain to a transcription factor. Cells are transfected with this fusion gene and a reporter gene, e.g., firefly luciferase, which expression is enhanced by the transcription factor. Cleavage of the fused substrate by γ-secretase will lead to expression of the reporter gene which can be monitored in appropriate assays. The γ-secretase activity can also be determined in cell-free in vitro assays where e.g., a cell lysate containing the γ-secretase complex is incubated with a suitable APP-derived substrate which is cleaved to the Abeta peptides. The amount of produced peptides can be determined with specific ELISA assays. Cell lines of neuronal origin secrete Abeta peptides which can be measured with the specific ELISA assay. Treatment with compounds which inhibit γ-secretase leads to a reduction of secreted Abeta thus providing a measure of inhibition. The in vitro assay of γ-secretase activity uses a HEK293 membrane fraction as a source of γ-secretase and a recombinant APP substrate. Latter consist of the C-terminal 100 amino acids of human APP fused to a 6× Histidin tail for purification which is expressed in E. coli in a regulatable expression vector, e.g. pEt15. This recombinant protein corresponds to the truncated APP fragment which results after […] of the extracellular domain and which constitutes the γ-secretase substrate. The assay principle is described in Li Y M et al, PNAS 97(11), 6138-6143 (2000). Hek293 cells are mechanically disrupted and the microsomal fraction is isolated by differential centrifugation. The membranes are solubilized in detergent (0.25% CHAPSO) and incubated with the APP substrate. The Abeta peptides which are produced by γ-secretase cleavage of the substrate are detected by specific ELISA assays as described (Brockhaus M et al, Neuroreport 9(7), 1481-1486 (1998).

| SMILES | IC50 |
| --- | --- |
| C[C@](F)(C(=O)NCCC(F)(F)C(F)(F)F)C(=O)N[C@@H]1C(=O)N(CCOCc2ccccc2)c2ccccc2-c2ccccc21 [Example 44, (S)—N—[(S)-5-(2-Benzyloxy-ethyl)-6-oxo-6,7-dihydro-5H-dibenzo[b,d]azepin-7-yl]-2-fluoro-2-methyl-N′-(3,3,4,4,4-pentafluoro-butyl)-malonamide] | 9 nM |
| C[C@@](F)(C(=O)NCC(F)(F)F)C(=O)N[C@@H]1C(=O)N(CCOCc2ccccc2)c2ccccc2-c2ccccc21 [Example 52, (R)—N—[(S)-5-(2-Benzyloxy-ethyl)-6-oxo-6,7-dihydro-5H-dibenzo[b,d]azepin-7-yl]-2-fluoro-2-methyl-N′-(2,2,2-trifluoro-ethyl)-malonamide] | 10 nM |
| COCCN1C(=O)[C@@H](NC(=O)[C@@](C)(F)C(=O)NCC(F)(F)C(F)(F)F)c2ccccc2-c2ccccc21 [Example 32, (S)-2-Fluoro-N—[(S)-5-(2-methoxy-ethyl)-6-oxo-6,7-dihydro-5H-dibenzo[b,d]azepin-7-yl]-2-methyl-N′-(2,2,3,3,3-pentafluoro-propyl)-malonamide] | 18 nM |
| C[C@@](F)(C(=O)NCCC(F)(F)F)C(=O)N[C@@H]1C(=O)N(CCO)c2ccccc2-c2ccccc21 [Example 54, (R)-2-Fluoro-N—[(S)-5-(2-hydroxy-ethyl)-6-oxo-6,7-dihydro-5H-dibenzo[b,d]azepin-7-yl]-2-methyl-N-(3,3,3-trifluoro-propyl)-malonamide] | 8 nM |
| CCOCCN1C(=O)[C@@H](NC(=O)C(C)(C)C(=O)NCC(F)(F)C(F)(F)F)c2ccccc2-c2ccccc21 [Example 71, N—[(S)-5-(2-Ethoxy-ethyl)-6-oxo-6,7-dihydro-5H-dibenzo[b,d]azepin-7-yl]-2,2-dimethyl-N′-(2,2,3,3,3-pentafluoro-propyl)-malonamide] | 6 nM |
| COC(C(=O)NCC(F)(F)C(F)(F)F)C(=O)N[C@@H]1C(=O)N(CCO)c2ccccc2-c2ccccc21 (stereo partly drawn) [Example 11, N—[(S)-5-(2-Hydroxy-ethyl)-6-oxo-6,7-dihydro-5H-dibenzo[b,d]azepin-7-yl]-2-methoxy-N′-(2,2,3,3,3-pentafluoro-propyl)-malonamide] | 7 nM |
| C[C@H](OC(=O)NCCC(F)(F)F)C(=O)N[C@@H]1C(=O)N(CCO)c2ccccc2-c2ccccc21 [Example 39, (3,3,3-Trifluoro-propyl)-carbamic acid (S)-1-[(S)-5-(2-hydroxy-ethyl)-6-oxo-6,7-dihydro-5H-dibenzo[b,d]azepin-7-ylcarbamoyl]-ethyl ester] | 16 nM |
| C[C@H](OC(=O)NCCF)C(=O)N[C@@H]1C(=O)N(CCOCc2ccccc2)c2ccccc2-c2ccccc21 [Example 41, (2-Fluoro-ethyl)-carbamic acid (S)-1-[(S)-5-(2-benzyloxy-ethyl)-6-oxo-6,7-dihydro-5H-dibenzo[b,d]azepin-7-ylcarbamoyl]-ethyl ester] | 480 nM |
| CCOC(C(=O)NCC(F)(F)C(F)(F)F)C(=O)N[C@@H]1C(=O)N(CCO)c2ccccc2-c2ccccc21 (single isomer, unassigned; epimer b) [Example 19, [R or S]2-Ethoxy-N—[(S)-5-(2-hydroxy-ethyl)-6-oxo-6,7-dihydro-5H-dibenzo[b,d]azepin-7-yl]-N′-(2,2,3,3,3-pentafluoro-propyl)-malonamide, epimer B] | 4 nM |
| C[C@H](OC(=O)NCCC(F)(F)F)C(=O)N[C@@H]1C(=O)N(CCOCc2ccccc2)c2ccccc2-c2ccccc21 [Example 35, (3,3,3-Trifluoro-propyl)-carbamic acid (S)-1-[(S)-5-(2-benzyloxy-ethyl)-6-oxo-6,7-dihydro-5H-dibenzo[b,d]azepin-7-ylcarbamoyl]-ethyl ester] | 22 nM |
| COCCN1C(=O)[C@@H](NC(=O)C(C)(C)C(=O)NCC(F)(F)C(F)(F)F)c2ccccc2-c2ccccc21 [Example 67, N—[(S)-5-(2-Methoxy-ethyl)-6-oxo-6,7-dihydro-5H-dibenzo[b,d]azepin-7-yl]-2,2-dimethyl-N′-(2,2,3,3,3-pentafluoro-propyl)-malonamide] | 5 nM |
